Experimental findings from ChEMBL document CHEMBL1150202, “Modified Taxols, 6. Preparation of Water-Soluble Prodrugs of Taxol” (J Nat Prod, 1991) are described below.

Structures are written as SMILES. Values after ≈ are worked out from the molar mass of the structure shown.

For one assay, the system named is A549. Nature of the assay: Cytotoxicity against human A549 cells. Format: functional, cell-based.
Assay [1] in a line: Cytotoxicity against human A549/VP cells. Format: functional, cell-based.
The subject of a further assay is B16. The assay can be described thus: Cytotoxicity against mouse B16 cells grown in PRIM medium. In kind it is functional, cell-based.
In another assay the test system is HCT-116. Nature of the assay: Cytotoxicity against human HCT116 cells. In kind it is functional, cell-based.
Assay [2] is described as follows: Cytotoxicity against human HCT/VP35 cells. In kind it is functional, cell-based.
Assay [3] has as its system P388. Nature of the assay: In vivo cytotoxicity against mouse P388 cells at 40 mg/kg, ip, scheduled Q01D for 5 days relative to control. Format: functional.
Assay [4] has as its system P388. Nature of the assay: In vivo cytotoxicity against mouse P388 cells at 20 mg/kg, ip, scheduled Q01D for 5 days relative to control. Format: functional.
Assay [5] relates to P388. Nature of the assay: In vivo cytotoxicity against mouse P388 cells at 10 mg/kg, ip, scheduled Q01D for 5 days relative to control. Format: functional.
Assay [6] concerns P388. Nature of the assay: In vivo cytotoxicity against mouse P388 cells at 5 mg/kg, ip, scheduled Q01D for 5 days relative to control. In kind it is functional.
Assay [7] concerns P388. The assay can be described thus: In vivo cytotoxicity against mouse P388 cells at 2.5 mg/kg, ip, scheduled Q01D for 5 days relative to control. In kind it is functional.
Assay [8] relates to P388. The assay can be described thus: In vivo cytotoxicity against mouse P388 cells at 16 mg/kg, ip, scheduled Q01D for 5 days relative to control. Format: functional.
Assay [9] relates to P388. The assay can be described thus: In vivo cytotoxicity against mouse P388 cells at 8 mg/kg, ip, scheduled Q01D for 5 days relative to control. Format: functional.
The subject of assay [10] is P388. The assay can be described thus: In vivo cytotoxicity against mouse P388 cells at 4 mg/kg, ip, scheduled Q01D for 5 days relative to control. In kind it is functional.
Assay [11] relates to P388. Nature of the assay: In vivo cytotoxicity against mouse P388 cells at 64 mg/kg, ip, scheduled Q01D for 5 days relative to control. In kind it is functional.
Assay [12] relates to P388. Nature of the assay: In vivo cytotoxicity against mouse P388 cells at 32 mg/kg, ip, scheduled Q01D for 5 days relative to control. Format: functional.
Assay [13] deals with P388. Nature of the assay: In vivo cytotoxicity against mouse P388 cells at 48 mg/kg, ip, scheduled Q01D for 5 days relative to control. Format: functional.
In assay [14] the test system is P388. Nature of the assay: In vivo cytotoxicity against mouse P388 cells at 24 mg/kg, ip, scheduled Q01D for 5 days relative to control. In kind it is functional.
Assay [15] relates to P388. The assay can be described thus: In vivo cytotoxicity against mouse P388 cells at 12 mg/kg, ip, scheduled Q01D for 5 days relative to control. In kind it is functional.
The test system of assay [16] is P388. The assay can be described thus: In vivo cytotoxicity against mouse P388 cells at 6 mg/kg, ip, scheduled Q01D for 5 days relative to control. Format: functional.
Assay [17] deals with P388. Nature of the assay: In vivo cytotoxicity against mouse P388 cells at 3 mg/kg, ip, scheduled Q01D for 5 days relative to control. In kind it is functional.

As a reminder, the IC50 is the concentration that inhibits the measured activity by half. A lower IC50 goes with higher potency. The T/C is the result in the treated group divided by that in the control group, in per cent. Regarding `CC(=O)O[C@H]1C(=O)[C@@]2(C)[C@H]([C@H](OC(=O)c3ccccc3)[C@]3(O)C[C@H](OC(=O)[C@H](OC(=O)CCS(=O)(=O)[O-])[C@@H](NC(=O)c4ccccc4)c4ccccc4)C(C)=C1C3(C)C)[C@]1(OC(C)=O)CO[C@@H]1C[C@@H]2O.[Na+]`, the IC50 was 0.4 µg/mL in the assay with A549; 0.19 µg/mL in assay [1]; 0.02 µg/mL in the assay with B16; less than 0.02 µg/mL with HCT-116; 0.05 µg/mL in [2]. The T/C in the assay on P388 [3] is 136%; with P388 [4], 136%; with P388 [5], 127%; with P388 [6], 123%; with P388 [7] it was 109%.

Regarding `CC(=O)O[C@H]1C(=O)[C@@]2(C)[C@H]([C@H](OC(=O)c3ccccc3)[C@]3(O)C[C@H](OC(=O)[C@H](OC(=O)CCC(=O)NCCS(=O)(=O)[O-])[C@@H](NC(=O)c4ccccc4)c4ccccc4)C(C)=C1C3(C)C)[C@]1(OC(C)=O)CO[C@@H]1C[C@@H]2O.[Na+]`, the IC50 in the assay with A549 is 0.09 µg/mL; in assay [1] it was less than 0.02 µg/mL; in the assay with B16, less than 0.02 µg/mL; with HCT-116, less than 0.02 µg/mL; in assay [2], 0.03 µg/mL. The T/C in the assay with P388 [8] came to 127%; in the assay with P388 [9] it was 114%; in the assay with P388 [10], 109%; in the assay on P388 [11], 132%; with P388 [12], 136%.

With `CC(=O)O[C@H]1C(=O)[C@@]2(C)[C@H]([C@H](OC(=O)c3ccccc3)[C@]3(O)C[C@H](OC(=O)[C@H](O)[C@@H](NC(=O)c4ccccc4)c4ccccc4)C(C)=C1C3(C)C)[C@]1(OC(C)=O)CO[C@@H]1C[C@@H]2O` [PACLITAXEL], the half-inhibitory concentration (IC50) with A549 is 4.79 µg/mL (≈ 5.61 µM); in assay [1] it was less than 0.02 µg/mL; with B16, less than 0.02 µg/mL; in the assay with HCT-116 it was less than 0.02 µg/mL; in assay [2], less than 0.02 µg/mL. For the same molecule, the results for the T/C with P388 [8], in the assay with P388 [9] and in the assay with P388 [10] were 155%, 132% and 150%, respectively.

On to `CC(=O)O[C@H]1C(=O)[C@@]2(C)[C@H]([C@H](OC(=O)c3ccccc3)[C@]3(O)C[C@H](OC(=O)[C@H](OC(=O)CCC(=O)NCCCS(=O)(=O)[O-])[C@@H](NC(=O)c4ccccc4)c4ccccc4)C(C)=C1C3(C)C)[C@]1(OC(C)=O)CO[C@@H]1C[C@@H]2O.[Na+]`, for which the IC50 in the assay with A549 is 0.19 µg/mL; in assay [1] it was 0.11 µg/mL; in the assay with B16, less than 0.02 µg/mL; with HCT-116, less than 0.02 µg/mL; in [2], 0.04 µg/mL. In addition, the T/C worked out at 127% in the assay with P388 [13]; 123% in the assay with P388 [14]; 118% in the assay with P388 [15]; 114% in the assay with P388 [16]; 109% with P388 [17].
